Source: patent US9828369B2, “Isoquinoline derivatives useful as inhibitors of diacylglyceride O-acyltransferase 2” (Merck Sharp & Dohme Corp., priority 2014, dated 2017)

Target: hDGAT2 (Homo sapiens (Human), UniProt Q96PD7)
Assay: DGAT2 enzymatic activity assay (triolein formation, LC/MS/MS)
Settings: read-out: IC50 values for inhibition of DGAT2; membrane prep of Sf-9 cells expressing hDGAT2; 25 μM diolein, 10 μM oleoyl-CoA; room temperature; triolein by LC/MS/MS

Sequence of hDGAT2 (Q96PD7 whole entry): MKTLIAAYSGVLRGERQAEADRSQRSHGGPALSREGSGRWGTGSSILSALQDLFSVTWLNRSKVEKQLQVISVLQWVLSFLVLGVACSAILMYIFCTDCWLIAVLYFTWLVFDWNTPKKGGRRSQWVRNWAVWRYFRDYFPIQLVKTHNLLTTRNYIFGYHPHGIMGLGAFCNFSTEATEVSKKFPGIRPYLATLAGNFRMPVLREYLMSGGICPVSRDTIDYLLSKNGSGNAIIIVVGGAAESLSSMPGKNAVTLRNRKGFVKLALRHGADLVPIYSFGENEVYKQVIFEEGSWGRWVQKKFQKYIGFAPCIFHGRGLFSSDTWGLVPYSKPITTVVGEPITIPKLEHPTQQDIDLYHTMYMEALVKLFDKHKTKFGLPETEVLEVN

IC50 [nM] | Compound
6670 | COc1cccc(-c2ccc(CNC(=O)CN3CCN(c4ccccc4)CC3)c3cnccc23)c1 [Example 93, N-((5-(3-methoxyphenyl)isoquinolin-8-yl)methyl)-2-(4-phenylpiperazin-1-yl)acetamide]
305 | COc1cccc(-c2ccc(CNC(=O)CCc3cnn(C)c3)c3cnccc23)c1 [Example 94, N-((5-(3-methoxyphenyl)isoquinolin-8-yl)methyl)-3-(1-methyl-1H-pyrazol-4-yl)propanamide]
1310 | COc1cccc(-c2ccc(CNC(=O)CC3(c4ccccc4)CCN(C(=O)OC(C)(C)C)C3)c3cnccc23)c1 (centres unmarked) [Example 95, tert-butyl 3-(2-(((5-(3-methoxyphenyl)isoquinolin-8-yl)methyl)amino)-2-oxoethyl)-3-phenylpyrrolidine-1-carboxylate]
8000 | COc1cccc(-c2ccc(CNC(=O)C3CCC(c4ccccc4)=N3)c3cnccc23)c1 (centres unmarked) [Example 96, N-((5-(3-methoxyphenyl)isoquinolin-8-yl)methyl)-5-phenyl-3,4-dihydro-2H-pyrrole-2-carboxamide]
597 | COc1cccc(-c2ccc(CNC(=O)C3CC3c3ccc(Cl)cc3)c3cnccc23)c1 (centres unmarked) [Example 97, 2-(4-chlorophenyl)-N-((5-(3 methoxyphenyl)isoquinolin-8-yl)methyl)cyclopropanecarboxamide]
7400 | COc1cccc(-c2ccc(CNC(=O)C3CC34CCCC4)c3cnccc23)c1 (centres unmarked) [Example 98, N-((5-(3-methoxyphenyl)isoquinolin-8-yl)methyl)spiro[2.4]heptane-1-carboxamide]
243 | COc1cccc(-c2ccc(CNC(=O)C3CC34CCCCC4)c3cnccc23)c1 (centres unmarked) [Example 100, N-((5-(3-methoxyphenyl)isoquinolin-8-yl)methyl)spiro[2.5]octane-1-carboxamide]
915 | COc1cccc(-c2ccc(CNC(=O)C3CC3c3ccccc3Br)c3cnccc23)c1 (centres unmarked) [Example 101, 2-(2-bromophenyl)-N-((5-(3-methoxyphenyl)isoquinolin-8-yl)methyl)cyclopropanecarboxamide]
178 | COc1cccc(-c2ccc(CNC(=O)C3CC3c3ccc(F)cc3)c3cnccc23)c1 (centres unmarked) [Example 102, 2-(4-fluorophenyl)-N-((5-(3-methoxyphenyl)isoquinolin-8-yl)methyl)cyclopropanecarboxamide]
1180 | COc1cccc(-c2ccc(CNC(=O)C3(S(=O)(=O)c4ccc(Cl)cc4)CC3)c3cnccc23)c1 [Example 103, 1-((4-chlorophenyl)sulfonyl)-N-((5-(3-methoxyphenyl)isoquinolin-8-yl)methyl)cyclopropanecarboxamide]
483 | COc1cccc(-c2ccc(CNC(=O)C3CC3c3cccnc3)c3cnccc23)c1 (centres unmarked) [Example 104, N-((5-(3-methoxyphenyl)isoquinolin-8-yl)methyl)-2-(pyridin-3-yl)cyclopropanecarboxamide]
7440 | COc1cccc(-c2ccc(CNC(=O)C3CC3c3ccccn3)c3cnccc23)c1 (centres unmarked) [Example 105, N-((5-(3-methoxyphenyl)isoquinolin-8-yl)methyl)-2-(pyridin-2-yl)cyclopropanecarboxamide]
537 | COc1ccc(C2CC2C(=O)NCc2ccc(-c3cccc(OC)c3)c3ccncc23)cc1 (centres unmarked) [Example 106, 2-(4-methoxyphenyl)-N-((5-(3-methoxyphenyl)isoquinolin-8-yl)methyl)cyclopropanecarboxamide]
1180 | COc1cccc(-c2ccc(CNC(=O)C3CC3c3cccc(OC)c3)c3cnccc23)c1 (centres unmarked) [Example 107, 2-(3-methoxyphenyl)-N-((5-(3-methoxyphenyl)isoquinolin-8-yl)methyl)cyclopropanecarboxamide]
696 | COc1cccc(-c2ccc(CNC(=O)C3CC3(F)c3ccccc3)c3cnccc23)c1 (centres unmarked) [Example 109, 2-fluoro-N-((5-(3-methoxyphenyl)isoquinolin-8-yl)methyl)-2-phenylcyclopropanecarboxamide]
544 | COc1cccc(-c2ccc(CNC(=O)c3n[nH]c(=O)c4ccccc34)c3cnccc23)c1 [Example 110, N-((5-(3-methoxyphenyl)isoquinolin-8-yl)methyl)-4-oxo-3,4-dihydrophthalazine-1-carboxamide]
1230 | COc1cccc(-c2ccc(CNC(=O)C(C)(C)Oc3ccc(C(F)(F)F)cc3)c3cnccc23)c1 [Example 111, N-((5-(3-methoxyphenyl)isoquinolin-8-yl)methyl)-2-methyl-2-(4-(trifluoromethyl)phenoxy)propanamide]
1160 | COc1cccc(-c2ccc(CNC(=O)C(C)(C)Oc3ccc(C(F)(F)F)cn3)c3cnccc23)c1 [Example 112, N-((5-(3-methoxyphenyl)isoquinolin-8-yl)methyl)-2-methyl-2-((5-(trifluoromethyl)pyridin-2-yl)oxy)propanamide]
5890 | COc1cccc(-c2ccc(CNC(=O)c3cn(Cc4ccccc4)nn3)c3cnccc23)c1 [Example 113, 1-benzyl-N-((5-(3-methoxyphenyl)isoquinolin-8-yl)methyl)-1H-1,2,3-triazole-4-carboxamide]

IC50 [nM] | Compound
6110 | COc1cccc(-c2ccc(CNC(=O)C(C)(C)Oc3cc(C(F)(F)F)ccn3)c3cnccc23)c1 [Example 114, N-((5-(3-methoxyphenyl)isoquinolin-8-yl)methyl)-2-methyl-2-((4-(trifluoromethyl)pyridin-2-yl)oxy)propanamide]
3390 | COc1cccc(-c2ccc(CNC(=O)c3cnn(Cc4ccccc4)c3)c3cnccc23)c1 [Example 115, 1-benzyl-N-((5-(3-methoxyphenyl)isoquinolin-8-yl)methyl)-1H-pyrazole-4-carboxamide]
8130 | COc1cccc(-c2ccc(CNC(=O)C(F)(F)c3ccc(Br)cn3)c3cnccc23)c1 [Example 116, 2-(5-bromopyridin-2-yl)-2,2-difluoro-N-((5-(3-methoxyphenyl)isoquinolin-8-yl)methyl)acetamide]
942 | COc1cccc(-c2ccc(CNC(=O)c3cc(C)n(Cc4ccccc4)n3)c3cnccc23)c1 [Example 117, 1-benzyl-N-((5-(3-methoxyphenyl)isoquinolin-8-yl)methyl)-5-methyl-1H-pyrazole-3-carboxamide]
5890 | COc1cccc(-c2ccc(CNC(=O)c3cncc(C(F)(F)F)c3)c3cnccc23)c1 [Example 119, N-((5-(3-methoxyphenyl)isoquinolin-8-yl)methyl)-5-(trifluoromethyl)nicotinamide]
4240 | COc1cccc(-c2ccc(CNC(=O)c3cc(Br)cnc3-c3ccccc3)c3cnccc23)c1 [Example 120, 5-bromo-N-((5-(3-methoxyphenyl)isoquinolin-8-yl)methyl)-2-phenylnicotinamide]
1180 | COc1cccc(-c2ccc(CNC(=O)c3cc(Br)cnc3C(F)(F)F)c3cnccc23)c1 [Example 121, 5-bromo-N-((5-(3-methoxyphenyl)isoquinolin-8-yl)methyl)-2-(trifluoromethyl)nicotinamide]
513 | COc1cccc(-c2ccc(CNC(=O)C3(c4ccc(C(F)(F)F)cc4)CCC3)c3cnccc23)c1 [Example 123, N-((5-(3-methoxyphenyl)isoquinolin-8-yl)methyl)-1-(4-(trifluoromethyl)phenyl)cyclobutanecarboxamide]
2330 | COc1cccc(-c2ccc(CNC(=O)C(F)c3ccc(C(F)(F)F)cc3)c3cnccc23)c1 (centres unmarked) [Example 124, 2-fluoro-N-((5-(3-methoxyphenyl)isoquinolin-8-yl)methyl)-2-(4-(trifluoromethyl)phenyl)acetamide]
2460 | COc1cccc(-c2ccc(CNC(=O)C(c3ccc(C(F)(F)F)cc3)C(C)C)c3cnccc23)c1 (centres unmarked) [Example 125, N-((5-(3-methoxyphenyl)isoquinolin-8-yl)methyl)-3-methyl-2-(4-(trifluoromethyl)phenyl)butanamide]
1420 | COc1cccc(-c2ccc(CNC(=O)c3cnccc3C(F)(F)F)c3cnccc23)c1 [Example 127, N-((5-(3-methoxyphenyl)isoquinolin-8-yl)methyl)-4-(trifluoromethyl)nicotinamide]
952 | COc1cccc(-c2ccc(CNC(=O)C3CCN(c4ccc(C(F)(F)F)cc4)CC3)c3cnccc23)c1 [Example 128, N-((5-(3-methoxyphenyl)isoquinolin-8-yl)methyl)-1-(4-(trifluoromethyl)phenyl)piperidine-4-carboxamide]
2990 | COc1cccc(-c2ccc(CNC(=O)c3cncc(-c4ccccc4)c3)c3cnccc23)c1 [Example 129, N-((5-(3-methoxyphenyl)isoquinolin-8-yl)methyl)-5-phenylnicotinamide]
268 | COc1cccc(-c2ccc(CNC(=O)C34CC(C3)C4)c3cnccc23)c1 [Example 130, N-((5-(3-methoxyphenyl)isoquinolin-8-yl)methyl)bicyclo[1.1.1]pentane-1-carboxamide]
400 | COc1cccc(-c2ccc(CNC(=O)c3cc(Br)cnc3F)c3cnccc23)c1 [Example 131, 5-bromo-2-fluoro-N-((5-(3-methoxyphenyl)isoquinolin-8-yl)methyl)nicotinamide]
3940 | COc1cccc(-c2ccc(CNC(=O)c3cnn(-c4ccccc4)c3C(F)(F)F)c3cnccc23)c1 [Example 132, N-((5-(3-methoxyphenyl)isoquinolin-8-yl)methyl)-1-phenyl-5-(trifluoromethyl)-1H-pyrazole-4-carboxamide]
571 | COc1cccc(-c2ccc(CNC(=O)c3ccnc(C(F)(F)F)c3)c3cnccc23)c1 [Example 133, N-((5-(3-methoxyphenyl)isoquinolin-8-yl)methyl)-2-(trifluoromethyl)isonicotinamide]
324 | COc1cccc(-c2ccc(CNC(=O)C(C)c3ccc(-c4ccccc4)cc3)c3cnccc23)c1 (centres unmarked) [Example 134, 2-([1,1′-biphenyl]-4-yl)-N-((5-(3-methoxyphenyl)isoquinolin-8-yl)methyl)propanamide]
2000 | COc1cccc(-c2ccc(CNC(=O)C(C)c3cccc(F)c3)c3cnccc23)c1 (centres unmarked) [Example 135, 2-(3-fluorophenyl)-N-((5-(3-methoxyphenyl)isoquinolin-8-yl)methyl)propanamide]
